Measurements reported in patent US20230040402A1, “ANTITUMOR DRUG FOR USE IN COMBINATION WITH IMMUNE CHECKPOINT INHIBITOR” (NIPPON SHINYAKU CO., LTD., priority 2019, published 2023).

What was measured:
[1] = test system: mouse colorectal cancer cell line CT26; assay: Test Example 3: mPGES-1 inhibitor and anti-mouse PD-1 antibody in combination in allograft model of mouse colorectal cancer cell line CT26; format: in vivo; settings: female BALB/c mouse, tumor volume on 21st day
Source text: (§1) On the day of transplantation, after the culture supernatant was removed, CT26 was washed with HBSS and collected. Collected CT26 was suspended in HBSS and used as cells for transplantation.
Under anesthesia, 3.0x10^5 cells for transplantation were subcutaneously transplanted into the right-hand side abdomen of each female BALB/c mouse.
(§2) The anti-mouse PD-1 antibody was intraperitoneally administered to the mice of the single therapy group of the anti-mouse PD-1 antibody and the combination therapy group, at a dosage of 100 µg/individual, twice a week after transplantation, from the 7th day of transplantation to the 20th day of transplantation.
Regarding the tumor volume (mm^3), the length and width of a tumor were measured by using an electronic caliper, and the tumor volume was calculated by the following formula.

[2] = test system: mouse colorectal cancer cell line CT26; assay: Test Example 4: mPGES-1 inhibitor and anti-mouse CTLA-4 antibody in combination in allograft model of mouse colorectal cancer cell line CT26; format: in vivo; settings: female BALB/c mouse
Source text: as §1
Under anesthesia, 3.0×10^5 cells for transplantation were subcutaneously transplanted into the right-hand side abdomen of each female BALB/c mouse.
as §2, with “anti-mouse CTLA-4” for “anti-mouse PD-1”, “group with” for “group of”, “combination” for “combination therapy”, “the 8th” for “the 7th”
Regarding the tumor volume (mm^3), the length and width of a tumor were measured by using an electronic caliper, and the tumor volume was calculated by the following formula

[3] = in combination with anti-mouse PD-1 antibody (100 µg/individual i.p. twice a week), compound 100 mg/kg orally twice a day, 7th to 20th day
[4] = used solely, 100 mg/kg (as free form) orally twice a day, 7th to 20th day of transplantation
[5] = in combination with anti-mouse CTLA-4 antibody (100 µg/individual i.p. twice a week), compound 100 mg/kg orally twice a day, 8th to 20th day
[6] = used solely, 100 mg/kg (as free substance) orally twice a day, 8th to 20th day of transplantation

Row | Structure (SMILES) | tumor growth (tumor volume) [1, 3] | tumor growth (tumor volume) [1, 4] | tumor growth (tumor volume) [2, 5] | tumor growth (tumor volume) [2, 6]
1 | COCc1nc2c(C(=O)Nc3cccc(Cl)c3C)cc(NC(=O)c3ccccc3C(F)(F)F)cc2[nH]1.Cc1ccc(S(=O)(=O)O)cc1 [compound 1, N-(3-chloro-2-methylphenyl)-2-(methoxymethyl)-6-({[2-(trifluoromethyl)phenyl]carbonyl}amino)-1H-benzimidazole-4-carboxamide 4-methylbenzenesulfonate] | tumor growth was suppressed | did not suppress tumor growth | tumor growth was suppressed | did not suppress tumor growth
2 | Cc1c(Cl)cccc1NC(=O)c1cc(NC(=O)c2ccccc2C(F)(F)F)cc2[nH]c(C3(C(F)(F)F)CC3)nc12 [compound 2, N-(3-chloro-2-methylphenyl)-2-[1-(trifluoromethyl)cyclopropyl]-6-({[2-(trifluoromethyl)phenyl]carbonyl}amino)-1H-benzimidazole-4-carboxamide] | tumor growth was suppressed | did not suppress tumor growth | tumor growth was suppressed | did not suppress tumor growth
